Data on one molecule can be found in US20190336537A1, “GENERATING ATRIAL AND VENTRICULAR CARDIOMYOCYTE LINEAGES FROM HUMAN PLURIPOTENT STEM CELLS” (UNIVERSITY HEALTH NETWORK, priority 2016, published 2019).

SMILES strings stand for the structures.

This experiment deals with MSC-iPS1 induced pluripotent stem cell line derived EBs. Description: Flow cytometry of ALDH activity and CD235a in MSC-iPS1-derived EBs treated with SB-431542. The class given is cell-based, human. The following applies: SB days 3 to 5, cells induced with 4B/1A. From the text: To determine if the approach for optimizing atrial and ventricular differentiation based on ALDH activity and CD235a expression is broadly applicable, we next used it to generate these cardiomyocyte populations from the HES2 human embryonic stem cell and the MSC-iPS1 induced pluripotent stem cell lines. Titration studies identified 5B/2A and 5B/6A as optimal for atrial and ventricular inductions, respectively, for HES2 cells and 4B/4A as optimal for ventricular induction for MSCiPSC1 cells (FIGS. 7A, 7B, 7E, and 7F; Mendeley http://dx.doi.org/10.17632/7z7d5v2c3w.1). Optimization of atrial induction from the MSC-iPSC1 cells was more challenging, as all cytokine combinations promoted the development of a substantial CD235a+ population. One interpretation of these patterns is that the MSC-iPS1 cells have a high level of endogenous Nodal/Activin A signaling, resulting in the development of some CD235a+ cells under all conditions. To test this, we added the Nodal/Activin A/transforming growth factor beta (TGF-beta) inhibitor SB-431542 (SB) from days 3 to 5 to cells induced with 4B/1A.
Day 2-6 EBs were dissociated with TrypLE for 2-4 min at room temperature (RT). Day 20 EBs were dissociated by incubation in Collagenase type 2 (0.5 mg/ml, Worthington) in HANKs buffer overnight at RT followed by TrypLE treatment as described above. The following antibodies were used for staining: anti-PDGFRa-PE (R&D Systems, 3:50), anti-CD235a-APC (BD PharMingen, 1:100), antiSIRPa-PeCy7 (Biolegend, 1:1000), anti-CD90-APC (BD PharMingen, 1:1000), anticardiac isoform of CTNT (ThermoFisher Scientific, 1:2000), or anti-myosin light chain 2 (Abcam, 1:1000). For unconjugated primary antibodies, the following secondary antibodies were used for detection: goat anti-mouse IgG-APC (BD Pharmigen, 1:250), or donkey anti-rabbit IgG-PE (Jackson ImmunoResearch, 1:250). Detailed antibody information is described in Table 2.
The Aldefluor™ assay (STEMCELL Technologies) was performed according to the instruction provided by the manufacturer. […] Stained cells were analyzed as described above. […]
Background: A flow cytometer gives signals particle by particle.

With `NC(=O)c1ccc(-c2nc(-c3ccc4c(c3)OCO4)c(-c3ccccn3)[nH]2)cc1` [SB-431542], the “CD235a+ cells” value is “reduction”, the “CTNT+MLC2V− cardiogenic potential of the mesoderm” value is “without affecting” and the “size of the ALDH+ population” value is listed as “increase in the size”.
